# Assay results published in BigSolDB 2.1.
structure (smiles),measurement,setting,value
CCOc1ccccc1C(N)=O,solubility (mole fraction),"in acetonitrile, 288.15 K",0.00524
same,solubility (mole fraction),"in acetonitrile, 293.15 K",0.0075
same,solubility (mole fraction),"in acetonitrile, 298.15 K",0.0101
same,solubility (mole fraction),"in acetonitrile, 303.15 K",0.0132
same,solubility (mole fraction),"in acetonitrile, 308.15 K",0.0176
same,solubility (mole fraction),"in acetonitrile, 313.15 K",0.0231
same,solubility (mole fraction),"in acetonitrile, 318.15 K",0.0302
same,solubility (mole fraction),"in acetonitrile, 323.15 K",0.0398
same,solubility (mole fraction),"in ethanol, 288.15 K",0.011
same,solubility (mole fraction),"in ethanol, 293.15 K",0.0137
same,solubility (mole fraction),"in ethanol, 298.15 K",0.0171
same,solubility (mole fraction),"in ethanol, 303.15 K",0.0211
same,solubility (mole fraction),"in ethanol, 308.15 K",0.0265
same,solubility (mole fraction),"in ethanol, 313.15 K",0.0327
same,solubility (mole fraction),"in ethanol, 318.15 K",0.0402
same,solubility (mole fraction),"in ethanol, 323.15 K",0.0486
same,solubility (mole fraction),"in ethyl acetate, 288.15 K",0.00336
same,solubility (mole fraction),"in ethyl acetate, 293.15 K",0.00459
same,solubility (mole fraction),"in ethyl acetate, 298.15 K",0.00639
same,solubility (mole fraction),"in ethyl acetate, 303.15 K",0.00835
same,solubility (mole fraction),"in ethyl acetate, 308.15 K",0.0112
same,solubility (mole fraction),"in ethyl acetate, 313.15 K",0.0147
same,solubility (mole fraction),"in ethyl acetate, 318.15 K",0.0196
same,solubility (mole fraction),"in ethyl acetate, 323.15 K",0.0251
same,solubility (mole fraction),"in isobutanol, 288.15 K",0.00816
same,solubility (mole fraction),"in isobutanol, 293.15 K",0.00984
same,solubility (mole fraction),"in isobutanol, 298.15 K",0.0126
same,solubility (mole fraction),"in isobutanol, 303.15 K",0.0162
same,solubility (mole fraction),"in isobutanol, 308.15 K",0.0208
same,solubility (mole fraction),"in isobutanol, 313.15 K",0.0273
same,solubility (mole fraction),"in isobutanol, 318.15 K",0.0354
same,solubility (mole fraction),"in isobutanol, 323.15 K",0.0454
same,solubility (mole fraction),"in methanol, 288.15 K",0.0154
same,solubility (mole fraction),"in methanol, 293.15 K",0.018
same,solubility (mole fraction),"in methanol, 298.15 K",0.0225
same,solubility (mole fraction),"in methanol, 303.15 K",0.027
same,solubility (mole fraction),"in methanol, 308.15 K",0.0328
same,solubility (mole fraction),"in methanol, 313.15 K",0.0402
same,solubility (mole fraction),"in methanol, 318.15 K",0.0492
same,solubility (mole fraction),"in methanol, 323.15 K",0.0597
same,solubility (mole fraction),"in n-propanol, 288.15 K",0.00832
same,solubility (mole fraction),"in n-propanol, 293.15 K",0.0113
same,solubility (mole fraction),"in n-propanol, 298.15 K",0.0142
same,solubility (mole fraction),"in n-propanol, 303.15 K",0.0179
same,solubility (mole fraction),"in n-propanol, 308.15 K",0.0227
same,solubility (mole fraction),"in n-propanol, 313.15 K",0.0301
same,solubility (mole fraction),"in n-propanol, 318.15 K",0.0389
same,solubility (mole fraction),"in n-propanol, 323.15 K",0.0502
